Test results from ChEMBL document CHEMBL1137094, “Facile incorporation of urea pseudopeptides into protease substrate analogue inhibitors” (Bioorg Med Chem Lett, 2004).

Key:
[1] = target: T1, Angiotensin-converting enzyme (Sus scrofa, UniProt Q4ACT8); test: Inhibitory concentration against porcine kidney angiotensin converting enzyme cleavage of hippuryl-histidyl-leucine (HHL)
T1 sequence (Q4ACT8 whole entry): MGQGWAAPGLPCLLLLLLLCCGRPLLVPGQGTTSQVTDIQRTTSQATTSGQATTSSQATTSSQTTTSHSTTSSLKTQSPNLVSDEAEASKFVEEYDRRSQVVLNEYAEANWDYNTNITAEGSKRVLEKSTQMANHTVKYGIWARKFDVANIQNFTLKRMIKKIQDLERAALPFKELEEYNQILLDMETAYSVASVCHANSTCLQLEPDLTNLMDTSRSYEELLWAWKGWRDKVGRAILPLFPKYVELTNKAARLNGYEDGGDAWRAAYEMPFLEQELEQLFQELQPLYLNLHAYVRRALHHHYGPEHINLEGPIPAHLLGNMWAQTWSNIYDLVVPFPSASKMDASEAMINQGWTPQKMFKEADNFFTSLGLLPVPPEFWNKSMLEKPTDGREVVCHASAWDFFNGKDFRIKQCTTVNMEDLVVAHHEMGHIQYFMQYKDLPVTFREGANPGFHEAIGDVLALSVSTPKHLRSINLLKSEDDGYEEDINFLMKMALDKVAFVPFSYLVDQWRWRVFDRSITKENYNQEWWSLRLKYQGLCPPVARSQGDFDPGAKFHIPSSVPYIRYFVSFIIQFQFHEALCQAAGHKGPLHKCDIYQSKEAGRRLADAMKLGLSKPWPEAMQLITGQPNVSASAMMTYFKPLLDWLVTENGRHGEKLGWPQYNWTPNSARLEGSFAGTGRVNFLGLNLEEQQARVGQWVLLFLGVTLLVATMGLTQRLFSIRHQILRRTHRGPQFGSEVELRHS

[2] = target: Human immunodeficiency virus type 1 protease (Human immunodeficiency virus 1) (UniProt Q72874); test: Percent inhibition against human immunodeficiency virus protease in fluorescence assay; conditions: concentration not given here
[3] = target: Human immunodeficiency virus type 1 protease (Human immunodeficiency virus 1, UniProt Q72874); test: Inhibitory concentration against human immunodeficiency virus protease in fluorescence assay

SMILES: CC(C)C[C@H](NC(=O)[C@H](Cc1ccccc1)NC(=O)NCNC(=O)CNC(=O)[C@@H](N)Cc1ccc(O)cc1)C(=O)O
- IC50 [1]: 880 µM

SMILES: COC(=O)[C@@H](NC(=O)[C@@H](NC(=O)C(Cc1ccccc1)NC(=O)N[C@H](Cc1ccccc1)NC(=O)[C@H](C)NC(=O)[C@H](C)NC(=O)OCc1ccccc1)C(C)C)C(C)C (stereo partly drawn)
- inhibition [2]: 35%

SMILES: COC(=O)[C@@H](NC(=O)[C@@H](NC(=O)[C@H](Cc1ccccc1)NC(=O)N[C@H](Cc1ccccc1)NC(=O)[C@H](C)NC(=O)[C@H](C)N)C(C)C)C(C)C
- IC50 [3]: 32.4 µM
